Experimental data taken from PMC5775429, “LY2087101 and dFBr share transmembrane binding sites in the (α4)3(β2)2 Nicotinic Acetylcholine Receptor” (Scientific Reports, 2018).
Values joined by “and” are separate entries in the source; they are usually repeats but may differ in a detail not shown here. Identical values can stand only once. Like-named read-outs stand apart in the source and are kept apart here. Marks after values point to notes of the source that are not given here.

What was measured:
(α4H142L)3(β2)2 nAChR = (α4H142L)3(β2)2 nAChR (Homo sapiens, UniProt P43681, H142L); set-up: method as in PMID 28446611; conditions: 10 µM ACh + 1 µM dFBr vs 10 µM ACh alone; data reported previously ref 29; cited from earlier work
(α4F316L)3(β2)2 nAChR = (α4F316L)3(β2)2 nAChR (Homo sapiens, UniProt P43681, F316L); experiment: Two-electrode voltage-clamp of ACh-induced currents in Xenopus oocytes; type: cell-based; conditions: for R, potentiation ratio (PR): 10 µM ACh + 1 µM PAM vs 10 µM ACh alone
Method: (§1) For amino acid substitutions within the α4 nAChR subunit, point mutations were introduced into pSP64ployA plasmid with cDNA encoding for human α4 nAChR subunit with mutagenic primer pairs using the Quick Change II Site-Directed Mutagenesis Kit (Agilent Technologies) then confirmed by DNA sequencing (GENEWIZ, LLC, South Plainfield, NJ). cRNA transcripts suitable for oocyte expression were prepared in vitro from linearized plasmids [α3 (BamH1), α4 (AseI), β2 (PvuII), β4 (XhoI)] using mMESSAGE mMACHINE high yield capped RNA transcription kits (Ambion) and purified on NucAway Spin column (Invitrogen). cRNA concentration was determined by spectroscopy (Concentration (ug/ul) = Abs260 * 40), aliquoted and stored at −80 °C until used.
(§2) Ovarian lobules were surgically harvested from oocytes-positive female Xenopus laevis (NASCO, Fort Atkinson, WI) according to an animal use protocol approved by the Texas A&M Health Sciences Center Institutional Animals Care and Use Committee. The Texas A&M Health Sciences Center Research Facility is registered as an animal research facility with the United States Department of Agriculture and is fully accredited by the American Association for Accreditation of Laboratory Animal Care (AAALAC). For oocytes defolliculation, ovarian lobes were treated with 3 mg/ml collagenase type 2 (Worthington Biomedical, Lakewood, NJ) in Ca + 2-free buffer (85 mM NaCl, 2.5 mM KCl, 1 mM MgCl2, 5 mM HEPES, pH 7.6). Collagenase treatment was allowed to proceed for 3 hours at room temperature with gentle shaking then oocytes were washed several times with buffer to remove collagenase then with ND96-gentamicine buffer. Healthy Stage V and VI oocytes were visually selected and maintained at 18 °C in modified ND96-gentamicine buffer (96 mM NaCl, 2 mM KCl, 1.8 mM CaCl2, 1 mM MgCl2, 5 mM HEPES, 50 µg/ml gentamicin, pH 7.6). Oocytes were injected with 50–100 ng of the desired nAChR subunits cRNA mix at ratios of 8α:1β or 1α:8β to express nAChRs with subunit stoichiometries of 3α:2β (low agonist sensitivity) or 2α:3β (high agonist sensitivity), respectively.
(§3) Oocytes were continuously perfused with recording buffer (100 mM NaCl, 2 mM KCl, 1 mM CaCl2, 0.8 mM MgCl2, 1 mM EGTA, 10 mM Hepes, pH 7.5) except during periods of drug applications.

(α4M605I)3(β2)2 nAChR = target: T1, (α4M605I)3(β2)2 nAChR (Homo sapiens, UniProt P17787+P43681, M605I); experiment: as above; type: cell-based; conditions: for R, potentiation ratio (PR): 10 µM ACh + 1 µM PAM vs 10 µM ACh alone
T1 construct: expressed in transfected cells; host or cells: Xenopus laevis oocytes injected with cRNA
Method: as §1, §2, §3

(α4C259F)3(β2)2 nAChR = (α4C259F)3(β2)2 nAChR (Homo sapiens, UniProt P43681, C259F); experiment: as above; type: cell-based; conditions: 10 µM ACh + 1 µM PAM vs 10 µM ACh alone
Method: as §1, §2, §3

(α4L256F)3(β2)2 nAChR = (α4L256F)3(β2)2 nAChR (Homo sapiens, UniProt P43681, L256F); experiment: as above; type: cell-based; conditions: for R, potentiation ratio (PR): 10 µM ACh + 1 µM PAM vs 10 µM ACh alone
Method: as §1, §2, §3

(α4L291V)3(β2)2 nAChR = target: T2, (α4L291V)3(β2)2 nAChR (Homo sapiens, UniProt P17787+P43681, L291V); experiment: as above; type: cell-based; conditions: for R, potentiation ratio (PR): 10 µM ACh + 1 µM PAM vs 10 µM ACh alone
T2 construct: expressed in transfected cells; host or cells: Xenopus laevis oocytes injected with cRNA
Method: as §1, §2, §3

(α4E308V)3(β2)2 nAChR = (α4E308V)3(β2)2 nAChR (Homo sapiens, UniProt P43681, E308V); experiment: as above; type: cell-based; conditions: for R, potentiation ratio (PR): 10 µM ACh + 1 µM PAM vs 10 µM ACh alone
Method: as §1, §2, §3

(α4I315A)3(β2)2 nAChR = target: T3, (α4I315A)3(β2)2 nAChR (Homo sapiens, UniProt P17787+P43681, I315A); experiment: as above; type: cell-based; conditions: for R, potentiation ratio (PR): 10 µM ACh + 1 µM PAM vs 10 µM ACh alone
T3 construct: expressed in transfected cells; host or cells: Xenopus laevis oocytes injected with cRNA
Method: as §1, §2, §3

(α4E92I)3(β2)2 nAChR = (α4E92I)3(β2)2 nAChR (Homo sapiens, UniProt P43681, E92I); set-up: method as in PMID 28446611; conditions: 10 µM ACh + 1 µM dFBr vs 10 µM ACh alone; data reported previously ref 29; cited from earlier work
α4β4 nAChR = target: T4, α4β4 nAChR (Homo sapiens, UniProt P30926+P43681); experiment: Two-electrode voltage-clamp of ACh-induced currents in Xenopus oocytes; type: cell-based; conditions: 1 μM PAM
T4 construct: expressed in transfected cells; host or cells: Xenopus laevis oocytes injected with cRNA
Method: (§4) Next, Xenopus oocytes were injected with RNA mixes of […], α3:β4, […], or α4:β4 at ratios of 8:1, 1:1, or 1:8 to express nAChRs with different subunit composition and with various α:β ratios.
as §2, §3

α4β2 nAChR = target: T5, α4β2 nAChR (Homo sapiens, UniProt P17787+P43681); experiment: as above; type: cell-based; conditions: 1 μM PAM
T5 construct: expressed in transfected cells; host or cells: Xenopus laevis oocytes injected with cRNA
Method: as §4, §2, §3

(α4)3(β2)2 nAChR = target: T6, (α4)3(β2)2 nAChR (Homo sapiens, UniProt P17787+P43681); experiment: as above; type: cell-based; conditions: for R, potentiation ratio (PR): 10 µM ACh + 1 µM PAM vs 10 µM ACh alone
T6 construct: expressed in transfected cells; host or cells: Xenopus laevis oocytes injected with cRNA
Method: To begin to characterize LY2087101 interaction with the heteropentameric α4β2 nAChRs, we examined the selectivity of LY2087101 for the two α4β2 nAChR isoforms; high-agonist sensitivity (α4)2(β2)3 and low-agonist sensitivity (α4)3(β2)2 nAChRs. Xenopus oocytes were injected with α4 and β2 subunits RNAs at ratios 8:1 and 1:8 to favor expression of (α4)3(β2)2 and (α4)2(β2)3 nAChRs, respectively.
as §2, §3

(α4L63I)3(β2)2 nAChR = (α4L63I)3(β2)2 nAChR (Homo sapiens, UniProt P43681, L63I); set-up: method as in PMID 28446611; conditions: 10 µM ACh + 1 µM dFBr vs 10 µM ACh alone; data reported previously ref 29; cited from earlier work
[1] = ACh concentration-response curve, normalized to 1 mM ACh alone
[2] = read-out: inhibition of ACh-current response at 10 μM dFBr
[3] = read-out: dFBr potentiation EC50
[4] = normalized to peak current by 10 µM ACh alone, curve fit
[5] = read-out: LY2087101 potentiation EC50

(α4E308V)3(β2)2 nAChR, sequence (P43681 29-627 E308V limits assumed): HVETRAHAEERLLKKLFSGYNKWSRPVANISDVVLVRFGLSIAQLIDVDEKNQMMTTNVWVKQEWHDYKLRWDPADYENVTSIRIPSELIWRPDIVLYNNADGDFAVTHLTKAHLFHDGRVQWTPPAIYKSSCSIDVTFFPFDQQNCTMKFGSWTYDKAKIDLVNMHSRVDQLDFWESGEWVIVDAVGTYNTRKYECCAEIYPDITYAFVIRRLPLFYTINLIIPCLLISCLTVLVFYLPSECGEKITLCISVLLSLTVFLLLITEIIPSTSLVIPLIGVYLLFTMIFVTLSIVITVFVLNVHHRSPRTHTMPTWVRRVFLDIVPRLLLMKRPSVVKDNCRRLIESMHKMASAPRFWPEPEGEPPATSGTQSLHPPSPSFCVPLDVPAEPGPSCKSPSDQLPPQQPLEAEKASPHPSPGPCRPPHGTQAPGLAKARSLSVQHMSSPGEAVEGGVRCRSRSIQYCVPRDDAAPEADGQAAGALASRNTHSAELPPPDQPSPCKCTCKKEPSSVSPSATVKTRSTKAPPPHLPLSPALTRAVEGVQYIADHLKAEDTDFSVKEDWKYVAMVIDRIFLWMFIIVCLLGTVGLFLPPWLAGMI
(α4E308V)3(β2)2 nAChR, sequence (P17787 26-502 partner): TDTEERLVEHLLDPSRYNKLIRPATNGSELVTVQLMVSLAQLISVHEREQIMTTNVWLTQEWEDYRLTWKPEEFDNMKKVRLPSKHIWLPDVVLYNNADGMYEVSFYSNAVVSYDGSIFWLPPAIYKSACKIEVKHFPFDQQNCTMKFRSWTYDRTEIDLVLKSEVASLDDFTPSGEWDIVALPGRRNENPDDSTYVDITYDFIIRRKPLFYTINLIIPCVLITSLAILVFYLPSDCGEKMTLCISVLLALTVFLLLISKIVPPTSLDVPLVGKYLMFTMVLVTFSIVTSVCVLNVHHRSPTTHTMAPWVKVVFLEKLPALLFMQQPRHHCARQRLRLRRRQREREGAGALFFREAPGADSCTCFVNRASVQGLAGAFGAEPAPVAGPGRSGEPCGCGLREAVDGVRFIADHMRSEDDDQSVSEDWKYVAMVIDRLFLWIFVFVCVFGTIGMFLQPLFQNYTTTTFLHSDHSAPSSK
T2 sequence (P43681 29-627 L291V limits assumed): as the sequence (P43681 29-627 E308V limits assumed) above, with L263V, V280E counted along it
T2 sequence (P17787 26-502): as the sequence (P17787 26-502 partner) above
(α4L256F)3(β2)2 nAChR, sequence (P43681 29-627 L256F limits assumed): as the sequence (P43681 29-627 E308V limits assumed) above, with L228F, V280E counted along it
(α4L256F)3(β2)2 nAChR, sequence (P17787 26-502 partner): as the sequence (P17787 26-502 partner) above
T3 sequence (P43681 29-627 I315A limits assumed): as the sequence (P43681 29-627 E308V limits assumed) above, with V280E, I287A counted along it
T3 sequence (P17787 26-502): as the sequence (P17787 26-502 partner) above
T6 sequence (P43681 29-627 limits assumed): as the sequence (P43681 29-627 E308V limits assumed) above, with V280E counted along it
T6 sequence (P17787 26-502): as the sequence (P17787 26-502 partner) above
(α4F316L)3(β2)2 nAChR, sequence (P43681 29-627 F316L limits assumed): as the sequence (P43681 29-627 E308V limits assumed) above, with V280E, F288L counted along it
(α4F316L)3(β2)2 nAChR, sequence (P17787 26-502 partner): as the sequence (P17787 26-502 partner) above
T1 sequence (P43681 29-627 M605I limits assumed): as the sequence (P43681 29-627 E308V limits assumed) above, with V280E, M577I counted along it
T1 sequence (P17787 26-502): as the sequence (P17787 26-502 partner) above
(α4C259F)3(β2)2 nAChR, sequence (P43681 29-627 C259F limits assumed): as the sequence (P43681 29-627 E308V limits assumed) above, with C231F, V280E counted along it
(α4C259F)3(β2)2 nAChR, sequence (P17787 26-502 partner): as the sequence (P17787 26-502 partner) above
T4 sequence (P43681 29-627 limits assumed): as the sequence (P43681 29-627 E308V limits assumed) above, with V280E counted along it
T4 sequence (P30926 22-498): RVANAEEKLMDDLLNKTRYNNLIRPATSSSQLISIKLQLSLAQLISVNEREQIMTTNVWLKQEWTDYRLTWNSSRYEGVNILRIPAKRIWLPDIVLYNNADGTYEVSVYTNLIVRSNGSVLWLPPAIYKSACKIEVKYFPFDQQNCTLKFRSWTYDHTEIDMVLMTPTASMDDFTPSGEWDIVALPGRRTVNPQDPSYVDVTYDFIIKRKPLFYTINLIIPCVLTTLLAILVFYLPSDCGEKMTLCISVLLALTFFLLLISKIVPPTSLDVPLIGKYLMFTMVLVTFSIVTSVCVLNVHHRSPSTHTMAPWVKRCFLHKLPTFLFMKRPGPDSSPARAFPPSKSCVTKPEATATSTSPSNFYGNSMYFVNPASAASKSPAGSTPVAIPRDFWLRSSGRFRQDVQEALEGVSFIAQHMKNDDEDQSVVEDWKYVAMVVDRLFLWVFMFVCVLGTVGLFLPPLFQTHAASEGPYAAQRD
T5 sequence (P43681 29-627 limits assumed): as the sequence (P43681 29-627 E308V limits assumed) above, with V280E counted along it
T5 sequence (P17787 26-502): as the sequence (P17787 26-502 partner) above
(α4H142L)3(β2)2 nAChR, sequence (P43681 29-627 H142L limits assumed): as the sequence (P43681 29-627 E308V limits assumed) above, with H114L, V280E counted along it
(α4H142L)3(β2)2 nAChR, sequence (P17787 26-502 partner): as the sequence (P17787 26-502 partner) above
(α4L63I)3(β2)2 nAChR, sequence (P43681 29-627 L63I limits assumed): as the sequence (P43681 29-627 E308V limits assumed) above, with L35I, V280E counted along it
(α4L63I)3(β2)2 nAChR, sequence (P17787 26-502 partner): as the sequence (P17787 26-502 partner) above
(α4E92I)3(β2)2 nAChR, sequence (P43681 29-627 E92I limits assumed): as the sequence (P43681 29-627 E308V limits assumed) above, with E64I, V280E counted along it
(α4E92I)3(β2)2 nAChR, sequence (P17787 26-502 partner): as the sequence (P17787 26-502 partner) above

SMILES: C=CC(C)(C)c1[nH]c2cc(Br)ccc2c1CCNC [dFBr]
- R, potentiation ratio (PR) ((α4H142L)3(β2)2 nAChR): 8.1 ± 0.6^a
- R, potentiation ratio (PR) ((α4F316L)3(β2)2 nAChR): 1.2 and ~ 1.2 and 1.2 ± 0.1
- ACh Imax in the presence of 1 µM dFBr ((α4F316L)3(β2)2 nAChR; [1]): 148 ± 12%
- dFBr concentration-dependent potentiation of ACh-current responses ((α4F316L)3(β2)2 nAChR; dFBr up to 10 µM, 10 μM ACh): did not potentiate
- R, potentiation ratio (PR) ((α4M605I)3(β2)2 nAChR): 4.5 ± 0.3
- R, potentiation ratio (PR) ((α4C259F)3(β2)2 nAChR): 3.1 ± 0.3
- R, potentiation ratio (PR) ((α4L256F)3(β2)2 nAChR): 1.0 and ~ 1 and 1.0 ± 0.1
- ACh Imax in the presence of 1 µM dFBr ((α4L256F)3(β2)2 nAChR; [1]): 142 ± 08%
- dFBr concentration-dependent potentiation of ACh-current responses ((α4L256F)3(β2)2 nAChR; dFBr up to 10 µM, 10 μM ACh): did not potentiate
- inhibition at 10 µM ((α4L256F)3(β2)2 nAChR; [2]): ~25%
- R, potentiation ratio (PR) ((α4L291V)3(β2)2 nAChR): 3.5 ± 0.2
- dFBr potentiation h (Hill coefficient) ((α4L291V)3(β2)2 nAChR; co-applied with 10 μM ACh): 0.8 ± 0.2
- dFBr potentiation Imax ((α4L291V)3(β2)2 nAChR; normalized to 10 µM ACh alone): 600 ± 136%
- EC50 ((α4L291V)3(β2)2 nAChR; [3]): 2.9 ± 1.9 µM
- R, potentiation ratio (PR) ((α4E308V)3(β2)2 nAChR): 1.0 and 1.0 ± 0.1
- ACh Imax in the presence of 1 µM dFBr ((α4E308V)3(β2)2 nAChR; [1]): 110 ± 06%
- dFBr concentration-dependent potentiation of ACh-current responses ((α4E308V)3(β2)2 nAChR; dFBr up to 10 µM, 10 μM ACh): did not potentiate
- inhibition at 10 µM ((α4E308V)3(β2)2 nAChR; [2]): ~45%
- R, potentiation ratio (PR) ((α4I315A)3(β2)2 nAChR): 1.2 and ~ 1.2 and 1.2 ± 0.2
- R, potentiation ratio (PR) ((α4E92I)3(β2)2 nAChR): 9.3 ± 1.8^a
- potentiation of ACh responses (α4β4 nAChR): did not potentiate
- potentiation of ACh responses (α4β2 nAChR): potentiated
- R, potentiation ratio (PR) ((α4)3(β2)2 nAChR; WT): 4.4 ± 0.2
- dFBr potentiation h (Hill coefficient) ((α4)3(β2)2 nAChR; co-applied with 10 μM ACh, WT): 1.1 ± 0.2
- dFBr potentiation Imax ((α4)3(β2)2 nAChR; normalized to 10 µM ACh alone, WT): 580 ± 42%
- EC50 ((α4)3(β2)2 nAChR; [3]): 1 ± 0.3 µM
- R, potentiation ratio (PR) ((α4L63I)3(β2)2 nAChR): 3.5 ± 0.3^a

SMILES: Cc1nc(Nc2ccc(F)cc2)sc1C(=O)c1ccsc1 [LY2087101, [2-[(4-Fluorophenyl)amino]-4-methyl-5-thiazolyl]-3-thienylmethanone]
- R, potentiation ratio (PR) ((α4F316L)3(β2)2 nAChR): 1.1 ± 0.1
- ACh Imax in the presence of 1 µM LY2087101 ((α4F316L)3(β2)2 nAChR; [1]): 122 ± 13%
- R, potentiation ratio (PR) ((α4M605I)3(β2)2 nAChR): 4.5 ± 0.2
- LY2087101 potentiation Imax% ((α4M605I)3(β2)2 nAChR; [4]): 756 ± 27%
- EC50 ((α4M605I)3(β2)2 nAChR; [5]): 0.8 ± 0.1 µM
- R, potentiation ratio (PR) ((α4C259F)3(β2)2 nAChR): 3.2 ± 0.4
- R, potentiation ratio (PR) ((α4L256F)3(β2)2 nAChR): 1.0 ± 0.1
- ACh Imax in the presence of 1 µM LY2087101 ((α4L256F)3(β2)2 nAChR; [1]): 104 ± 09%
- R, potentiation ratio (PR) ((α4L291V)3(β2)2 nAChR): 3.7 ± 0.6
- LY2087101 potentiation Imax% ((α4L291V)3(β2)2 nAChR; [4]): 719 ± 20%
- EC50 ((α4L291V)3(β2)2 nAChR; [5]): 1.6 ± 0.1 µM
- R, potentiation ratio (PR) ((α4E308V)3(β2)2 nAChR): 1.7 ± 0.2
- LY2087101 potentiation Imax% ((α4E308V)3(β2)2 nAChR; normalized to 10 µM ACh alone, not from curve fitting, maximum seen at any concentration up to 10 µM LY2087101): 270 ± 30%
- R, potentiation ratio (PR) ((α4I315A)3(β2)2 nAChR): 2.5 ± 0.2
- LY2087101 potentiation Imax% ((α4I315A)3(β2)2 nAChR; [4]): 405 ± 5%
- EC50 ((α4I315A)3(β2)2 nAChR; [5]): 1.2 ± 0.5 µM
- potentiation of ACh responses (α4β4 nAChR): potentiated
- potentiation of ACh responses (α4β2 nAChR): potentiated
- R, potentiation ratio (PR) ((α4)3(β2)2 nAChR; WT): 4.1 ± 0.3
- ACh Imax in the presence of 1 µM LY2087101 ((α4)3(β2)2 nAChR; [1]): 251 ± 19% and ~ 250%
- EC50 ((α4)3(β2)2 nAChR; co-applied with 10 µM ACh, LS WT, read-out: LY2087101 potentiation EC50): 1.4 µM and 1 to 2 µM
